Where a name gives a salt, the structure may show the parent alone.
Columns and labels:
[1] = system: elevated level of blood glucose induced by Alloxan in mice; experiment: Effect on the elevated level of blood glucose induced by alloxan in mice; type: in vivo; conditions: 75 mg/kg for 7 days
Description: Animals: 100 male mice weighed 22-25 g, Positive control: Phenformin Hydrochloride (Jiangsu Yabang Pharmaceutical (group) Co., Ltd.),
20 mice were randomly selected as the blank group. Others were injected intravenously with Alloxan via caudal vein at a dose of 65 mg/kg body weight, and then modeled according to established methods. The mice were divided into 4 groups according to their level of blood glucose, in which 3 groups were administered with 60 mg/kg of the plant extract, 75 mg/kg of Phenformin Hydrochloride, or 60 mg/kg of sequoyitol-containing Taxus chinensis extract respectively for 7 days, in a volume of 0.1 ml/10 g body weight. The same volume of distilled water was administered to the blank group and the control group. Blood glucose was determined using glucose oxidase method.

[2] = Solubility in water; type: physicochemical
Description: The sequoyitol was dissolved in water and sterilized by filtration. Solutions for injection were prepared according to the preparation process of solutions for injection. Powder for injection was prepared according to the preparation process of lyophilized powder for injection.

[3] = sequoyitol isolated from Taxus chinensis; cited from earlier work
[4] = system: diabetes models; conditions: sequoyitol isolated from Taxus chinensis; cited from earlier work

SMILES | Decrease of alloxan-induced hyperglycemia in comparison to the control group [1] | Solubility in water [2] | Toxicity [3] | Effect on breakdown of hepatic glycogen and absorption of glucose [4] | Effect on high glycemia in diabetes models [4]
[H]/N=C(/N)N/C(=N/[H])NCCc1ccccc1 [Phenformin Hydrochloride] | 155.8 mg/dL |  |  |  | 
CO[C@H]1[C@H](O)[C@@H](O)[C@@H](O)[C@@H](O)[C@@H]1O [Sequoyitol, sequoyitol] |  | well soluble in water | very low toxicity | inhibits the breakdown of hepatic glycogen and the absorption of glucose | remarkably decreases high glycemia
